Data published in patent US8501783B2, “Conformationally restricted urea inhibitors of soluble epoxide hydrolase” (The Regents of the University of California, priority 2006, dated 2013).
Several values for one entry are separate records, joined by “and”; a condition that tells them apart may be missing. Identical values can stand only once. Like-named read-outs stand apart in the source and are kept apart here. One block for each compound: values may come before it.

Assays:
human sEH = human sEH (Homo sapiens (Human), UniProt P34913); experiment: Inhibition of human soluble epoxide hydrolase (IC50; one of three substrate methods); assay type: biochemical;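 also: enzyme expressed in baculovirus and affinity-purified, assays run in triplicate, with substrate and read-out differing among the three methods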
Sequence of human sEH (P34913 whole entry): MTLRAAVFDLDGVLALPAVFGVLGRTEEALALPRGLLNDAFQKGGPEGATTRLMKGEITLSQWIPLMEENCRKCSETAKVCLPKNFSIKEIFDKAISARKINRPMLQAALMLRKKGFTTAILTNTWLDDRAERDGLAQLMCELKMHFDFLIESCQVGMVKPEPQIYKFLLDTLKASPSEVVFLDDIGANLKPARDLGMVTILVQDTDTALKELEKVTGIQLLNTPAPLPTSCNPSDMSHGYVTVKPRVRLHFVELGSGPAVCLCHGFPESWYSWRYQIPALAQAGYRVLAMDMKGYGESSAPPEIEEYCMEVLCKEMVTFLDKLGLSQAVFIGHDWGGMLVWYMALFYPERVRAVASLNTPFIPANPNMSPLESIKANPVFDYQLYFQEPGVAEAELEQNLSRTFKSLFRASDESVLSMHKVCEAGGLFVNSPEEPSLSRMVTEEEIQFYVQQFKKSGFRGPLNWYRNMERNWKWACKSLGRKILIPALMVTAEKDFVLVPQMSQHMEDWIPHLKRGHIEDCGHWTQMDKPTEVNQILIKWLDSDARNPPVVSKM

[1] = Pharmacokinetic screening in dogs, oral administration, plasma LC-MS/MS; conditions: for LC/MS analysis, plasma level at time 0 / LC/MS analysis, plasma level at time 15 / LC/MS analysis, plasma level at time 30 / LC/MS analysis, plasma level at time 60 / LC/MS analysis, plasma level at time 120 / LC/MS analysis, plasma level at time 180 / LC/MS analysis, plasma level at time 240 / LC/MS analysis, plasma level at time 300 / LC/MS analysis, plasma level at time 360 / LC/MS analysis, plasma level at time 480 / LC/MS analysis, plasma level at time 1440: single oral dose (0.3 mg/kg per FIG. 1); for AUC: dog, plasma, po; for AUCINF_D_pred: dose-normalised
[2] = Solubility in oil of the dosing preparation (compound in Crisco); assay type: physicochemical; conditions: appearance in oil, in parentheses after compound number
Source text: The dogs are fed immediately thereafter.

SMILES: CCCC(=O)N1CCC(NC(=O)NC23CC4CC(CC(C4)C2)C3)CC1 [Compound 1157, N-(1-butyrylpiperidin-4-yl)-N′-(adamant-1-yl)urea]
IC50 (human sEH): 2.6 nM and 2.64 nM
AUC ([1]; 0.3 mg/kg): 0.0367 µM·h
AUCINF_D_pred ([1]; dogs, oral): 7187 kg·nM·min/mg
LC/MS analysis, plasma level at time 0 ([1]; dogs, time 0 min): 0.00
LC/MS analysis, plasma level at time 15 ([1]; dogs, time 15 min): 0.58
LC/MS analysis, plasma level at time 30 ([1]; dogs, time 30 min): 5.18
LC/MS analysis, plasma level at time 60 ([1]; dogs, time 60 min): 7.77
LC/MS analysis, plasma level at time 120 ([1]; dogs, time 120 min): 9.50
LC/MS analysis, plasma level at time 180 ([1]; dogs, time 180 min): 7.05
LC/MS analysis, plasma level at time 240 ([1]; dogs, time 240 min): 4.60
LC/MS analysis, plasma level at time 300 ([1]; dogs, time 300 min): 2.45
LC/MS analysis, plasma level at time 360 ([1]; dogs, time 360 min): 2.45
LC/MS analysis, plasma level at time 480 ([1]; dogs, time 480 min): 0.86
LC/MS analysis, plasma level at time 1440 ([1]; dogs, time 1440 min): 0.00
solubility in oil [2]: 1157 (Opaque)

SMILES: O=C(NC1CCN(C(=O)c2ccccc2)CC1)NC12CC3CC(CC(C3)C1)C2 [Compound 1159, N-(1-benzoylpiperidin-4-yl)-N′-(adamant-1-yl)urea]
IC50 (human sEH; recombinant human sEH): 1.3 nM
LC/MS analysis, plasma level at time 0 ([1]; dogs, time 0 min): 0.00
LC/MS analysis, plasma level at time 15 ([1]; dogs, time 15 min): 7.26
LC/MS analysis, plasma level at time 30 ([1]; dogs, time 30 min): 7.82
LC/MS analysis, plasma level at time 60 ([1]; dogs, time 60 min): 4.58
LC/MS analysis, plasma level at time 120 ([1]; dogs, time 120 min): 1.39
LC/MS analysis, plasma level at time 180 ([1]; dogs, time 180 min): 0.60
LC/MS analysis, plasma level at time 240 ([1]; dogs, time 240 min): 0.00
LC/MS analysis, plasma level at time 300 ([1]; dogs, time 300 min): 0.00
LC/MS analysis, plasma level at time 360 ([1]; dogs, time 360 min): 0.00
LC/MS analysis, plasma level at time 480 ([1]; dogs, time 480 min): 0.00
LC/MS analysis, plasma level at time 1440 ([1]; dogs, time 1440 min): 0.00
solubility in oil [2]: 1159 (Opaque)

SMILES: CCC(=O)N1CCC(NC(=O)NC23CC4CC(CC(C4)C2)C3)CC1 [Compound 1163, N-(1-propionylpiperidin-4-yl)-N′-(adamant-1-yl)urea]
IC50 (human sEH): 3.19 nM
AUC ([1]; 0.3 mg/kg): 0.0933 µM·h
AUCINF_D_pred ([1]; dogs, oral): 18504 kg·nM·min/mg
LC/MS analysis, plasma level at time 0 ([1]; dogs, time 0 min): 0.00
LC/MS analysis, plasma level at time 15 ([1]; dogs, time 15 min): 5.70
LC/MS analysis, plasma level at time 30 ([1]; dogs, time 30 min): 16.05
LC/MS analysis, plasma level at time 60 ([1]; dogs, time 60 min): 31.79
LC/MS analysis, plasma level at time 120 ([1]; dogs, time 120 min): 24.00
LC/MS analysis, plasma level at time 180 ([1]; dogs, time 180 min): 14.55
LC/MS analysis, plasma level at time 240 ([1]; dogs, time 240 min): 10.05
LC/MS analysis, plasma level at time 300 ([1]; dogs, time 300 min): 7.20
LC/MS analysis, plasma level at time 360 ([1]; dogs, time 360 min): 4.95
LC/MS analysis, plasma level at time 480 ([1]; dogs, time 480 min): 1.50
LC/MS analysis, plasma level at time 1440 ([1]; dogs, time 1440 min): 0.00
solubility in oil [2]: 1163 (Opaque)

SMILES: CC(=O)N1CCC(NC(=O)Nc2ccc(OC(F)(F)F)cc2)CC1 [Compound 1555, 1-(1-Acetyl-piperidin-4-yl)-3-(4-trifluoromethoxy-phenyl)-urea]
AUC ([1]; 0.3 mg/kg): 6.5 µM·h
AUCINF_D_pred ([1]; dogs, oral): 13002825 kg·nM·min/mg
LC/MS analysis, plasma level at time 0 ([1]; dogs, time 0 min): 0.00
LC/MS analysis, plasma level at time 15 ([1]; dogs, time 15 min): 16.07
LC/MS analysis, plasma level at time 30 ([1]; dogs, time 30 min): 45.76
LC/MS analysis, plasma level at time 60 ([1]; dogs, time 60 min): 100.35
LC/MS analysis, plasma level at time 120 ([1]; dogs, time 120 min): 216.91
LC/MS analysis, plasma level at time 180 ([1]; dogs, time 180 min): 260.79
LC/MS analysis, plasma level at time 240 ([1]; dogs, time 240 min): 268.90
LC/MS analysis, plasma level at time 300 ([1]; dogs, time 300 min): 302.64
LC/MS analysis, plasma level at time 480 ([1]; dogs, time 480 min): 320.45
LC/MS analysis, plasma level at time 1440 ([1]; dogs, time 1440 min): 266.29
solubility in oil [2]: 1555 (Opaque)

The remaining lines, values ahead:

IC50 (human sEH; recombinant human sEH): 3.2 nM
LC/MS analysis, plasma level at time 0 ([1]; dogs, time 0 min): 0.00
LC/MS analysis, plasma level at time 15 ([1]; dogs, time 15 min): 4.86
LC/MS analysis, plasma level at time 30 ([1]; dogs, time 30 min): 3.81
LC/MS analysis, plasma level at time 60 ([1]; dogs, time 60 min): 1.98
LC/MS analysis, plasma level at time 120 ([1]; dogs, time 120 min): 0.42
LC/MS analysis, plasma level at time 180 ([1]; dogs, time 180 min): 0.16
LC/MS analysis, plasma level at time 240 ([1]; dogs, time 240 min): 0.06
LC/MS analysis, plasma level at time 300 ([1]; dogs, time 300 min): 0.05
LC/MS analysis, plasma level at time 360 ([1]; dogs, time 360 min): 0.03
LC/MS analysis, plasma level at time 480 ([1]; dogs, time 480 min): 0.03
LC/MS analysis, plasma level at time 1440 ([1]; dogs, time 1440 min): 0.04
solubility in oil [2]: 1121 (Not dissolved)
SMILES: O=C(NCC1CCN(C(=O)c2ccccc2)CC1)NC12CC3CC(CC(C3)C1)C2 [Compound 1121, N-((1-benzoylpiperidin-4-yl)methyl)-N′-(adamant-1-yl)urea]

AUC ([1]; 0.3 mg/kg): 0.597 µM·h
plasma level, in solution at 0.1 mg/kg dose, time 0 ([1]; dogs, oral, 0.1 mg/kg, time 0 min): 0.31
plasma level, in solution at 0.1 mg/kg dose, time 15 ([1]; dogs, oral, 0.1 mg/kg, time 15 min): 5.33
plasma level, in solution at 0.1 mg/kg dose, time 30 ([1]; dogs, oral, 0.1 mg/kg, time 30 min): 19.59
plasma level, in solution at 0.1 mg/kg dose, time 60 ([1]; dogs, oral, 0.1 mg/kg, time 60 min): 56.74
plasma level, in solution at 0.1 mg/kg dose, time 120 ([1]; dogs, oral, 0.1 mg/kg, time 120 min): 106.43
plasma level, in solution at 0.1 mg/kg dose, time 180 ([1]; dogs, oral, 0.1 mg/kg, time 180 min): 100.94
plasma level, in solution at 0.1 mg/kg dose, time 240 ([1]; dogs, oral, 0.1 mg/kg, time 240 min): 75.71
plasma level, in solution at 0.1 mg/kg dose, time 300 ([1]; dogs, oral, 0.1 mg/kg, time 300 min): 44.51
plasma level, in solution at 0.1 mg/kg dose, time 360 ([1]; dogs, oral, 0.1 mg/kg, time 360 min): 29.15
plasma level, in solution at 0.1 mg/kg dose, time 480 ([1]; dogs, oral, 0.1 mg/kg, time 480 min): 13.01
plasma level, in solution at 0.1 mg/kg dose, time 1440 ([1]; dogs, oral, 0.1 mg/kg, time 1440 min): 0.00
plasma level, in solution at 0.3 mg/kg dose, time 0 ([1]; dogs, oral, 0.3 mg/kg, time 0 min): 0.00
plasma level, in solution at 0.3 mg/kg dose, time 15 ([1]; dogs, oral, 0.3 mg/kg, time 15 min): 288.97
plasma level, in solution at 0.3 mg/kg dose, time 30 ([1]; dogs, oral, 0.3 mg/kg, time 30 min): 276.16
plasma level, in solution at 0.3 mg/kg dose, time 60 ([1]; dogs, oral, 0.3 mg/kg, time 60 min): 241.03
plasma level, in solution at 0.3 mg/kg dose, time 120 ([1]; dogs, oral, 0.3 mg/kg, time 120 min): 107.19
plasma level, in solution at 0.3 mg/kg dose, time 180 ([1]; dogs, oral, 0.3 mg/kg, time 180 min): 56.41
plasma level, in solution at 0.3 mg/kg dose, time 240 ([1]; dogs, oral, 0.3 mg/kg, time 240 min): 26.42
plasma level, in solution at 0.3 mg/kg dose, time 300 ([1]; dogs, oral, 0.3 mg/kg, time 300 min): 20.81
plasma level, in solution at 0.3 mg/kg dose, time 360 ([1]; dogs, oral, 0.3 mg/kg, time 360 min): 10.10
plasma level, in solution at 0.3 mg/kg dose, time 480 ([1]; dogs, oral, 0.3 mg/kg, time 480 min): 4.66
plasma level, in solution at 0.3 mg/kg dose, time 1440 ([1]; dogs, oral, 0.3 mg/kg, time 1440 min): 0.00
AUCINF_D_pred ([1]; dogs, oral): 119214 kg·nM·min/mg
LC/MS analysis, plasma level at time 0 ([1]; dogs, time 0 min): 0.00
LC/MS analysis, plasma level at time 15 ([1]; dogs, time 15 min): 288.97
LC/MS analysis, plasma level at time 30 ([1]; dogs, time 30 min): 276.16
LC/MS analysis, plasma level at time 60 ([1]; dogs, time 60 min): 2411.03
LC/MS analysis, plasma level at time 120 ([1]; dogs, time 120 min): 107.19
LC/MS analysis, plasma level at time 180 ([1]; dogs, time 180 min): 56.41
LC/MS analysis, plasma level at time 240 ([1]; dogs, time 240 min): 26.42
LC/MS analysis, plasma level at time 300 ([1]; dogs, time 300 min): 20.81
LC/MS analysis, plasma level at time 360 ([1]; dogs, time 360 min): 10.10
LC/MS analysis, plasma level at time 480 ([1]; dogs, time 480 min): 4.66
LC/MS analysis, plasma level at time 1440 ([1]; dogs, time 1440 min): 0.00
solubility in oil [2]: 1153 (Opaque)
SMILES: CC(=O)N1CCC(NC(=O)NC23CC4CC(CC(C4)C2)C3)CC1 [Compound 1153, N-(1-acetylpiperidin-4-yl)-N′-(adamant-1-yl)urea]

IC50 (human sEH; recombinant human sEH): 1.2 nM
AUC ([1]; 0.3 mg/kg): 0.08 µM·h
AUCINF_D_pred ([1]; dogs, oral): 16100 kg·nM·min/mg
LC/MS analysis, plasma level at time 0 ([1]; dogs, time 0 min): 0.00
LC/MS analysis, plasma level at time 15 ([1]; dogs, time 15 min): 9.19
LC/MS analysis, plasma level at time 30 ([1]; dogs, time 30 min): 32.65
LC/MS analysis, plasma level at time 60 ([1]; dogs, time 60 min): 42.48
LC/MS analysis, plasma level at time 120 ([1]; dogs, time 120 min): 21.09
LC/MS analysis, plasma level at time 180 ([1]; dogs, time 180 min): 7.15
LC/MS analysis, plasma level at time 240 ([1]; dogs, time 240 min): 3.16
LC/MS analysis, plasma level at time 300 ([1]; dogs, time 300 min): 1.72
LC/MS analysis, plasma level at time 360 ([1]; dogs, time 360 min): 0.00
LC/MS analysis, plasma level at time 480 ([1]; dogs, time 480 min): 0.00
LC/MS analysis, plasma level at time 1440 ([1]; dogs, time 1440 min): 0.00
solubility in oil [2]: 1201 (Suspension)
SMILES: O=C(NC1CCN(C(=O)c2ccccn2)CC1)NC12CC3CC(CC(C3)C1)C2 [Compound 1201, N-(1-(Pyridine-2-carbonyl)piperidin-4-yl)-N′-(adamant-1-yl)urea]
